Measurements as given in patent US20240099298A1, “BIOINSECTICIDAL COMPOSITIONS CONTAINING MONOTERPENES AND METHODS OF USE THEREOF” (priority 2017, published 2024).
Values after ≈ are worked out from the molar mass of the structure shown. Where a name gives a salt, the structure may show the parent alone. Marks after values point to notes of the source that are not given here.

Experiments:
[1] = tested on: A. japonicus (parasitic wasp); experiment: Median lethal time (LT50) test, parasitic wasp (natural enemy); conditions: non-target parasitic wasp
Procedure: Insect Egg Parasitic Wasp (Natural Enemy). […] Both species were purchased from a commercial source. One- to two-day-old adults (after eclosion) were used for fumigation tests.
Median Lethal Time (LT50) and Median Knockdown Concentration (KC50) Tests. Five species of adult insects or natural enemies were tested for LT50 values including melon fly (B. cucuribitae), red flour beetle (T. castaneum), Nitidulidae beetle (H. picinus), parasitic wasp (A. japonicus) and housefly (M. domestica). For each treatment and control, 20 insects at the developmental stages described above were placed individually without food in a 1-L wide-mouth glass bottle (height 19.5 cm, bottom diameter 10.5 cm, mouth i.d. 5.5 cm) containing pieces of tissue paper. […] Five different concentrations of the test chemicals were placed on pieces of cellulose-based qualitative filter paper. Each of the filter papers was placed in a bottle to have 5 appropriate concentrations in serial dilutions. DDVP was the positive control, and no chemical treatments were the negative control. All treatments and controls were in triplicate. Mortality was observed periodically in a 10-30 minute interval for 2 days or until all insects died. The death was defined as no movement when the insects were touched.

[2] = tested on: B. cucuribitae (melon fly); experiment: Median lethal time (LT50) test, melon fly; format: in vivo, Bactrocera cucuribitae
Source text: (§1) All treatments and controls were in triplicate.
(§2) Toxicity of Monoterpenes as Fumigants. […] Therefore, to determine how fast the monoterpenes act as fumigants, it was necessary to determine their LT50 values for the target organisms.

[3] = tested on: Megalurothrips usitatus (flower Thrips); conditions: for activity against flower Thrips in preliminary screening: adult M. usitatus, 24 hours of fumigation in 1-L flasks
[4] = tested on: H. picinus (Nitidulid beetle); experiment: Median lethal time (LT50) test, Nitidulid beetle; format: in vivo, Haptoncus picinus
Source text: as §1, §2

[5] = tested on: T. castaneum (red flour beetle); experiment: Median lethal time (LT50) test, red flour beetle; format: in vivo, Tribolium castaneum
Source text: as §1, §2

M. domestica (housefly) = experiment: Median lethal time (LT50) test, housefly; format: in vivo, Musca domestica
Source text: as §1, §2

[6] = T 25 °C; cited from earlier work
flower Thrips = experiment: Field test in cowpea fields, thrips; format: in vivo
Procedure: (§3) Field Tests. […] Therefore, it was determined whether this compound could control Thrips in the field. Linalool was in 20-, 10- and 5.0-fold dilutions with edible peanut oil. The positive control was spinetoram (Dow AgroSciences) in 3000-fold dilution.
(§4) The field experimental plots were 15 m^2 in size, in triplicate. A designated sprayer (Dia spray No. 3530, Japan Furlpla Co., Japan) was used to spray the solvent only negative control in this experiment. Grub density was calculated at every plot prior to application. During the experiments, the field was also infested with leafhoppers, so that the control efficacy of leafhoppers was also assessed. The number of adult Thrips and leafhoppers was assessed in the treatment and control areas at 1, 3, 5, 7, 14 and 21 days after application. The decline of the adult Thrips and leafhoppers was calculated to assess the control efficacy of linalool.
Field Applications. To assess the use of monoterpenes in the field, linalool was tested for control of flower Thrips in cowpea fields. […] At 1 and 3 days after treatment, control efficacy respectively reached 98% and 100% for the 10-fold dilution (Table 15). By comparison, the positive control, a 3000-fold dilution of spinetoram, reached 70% and 94% at 1 and 3 days after treatment, respectively (Table 17).

[7] = tested on: leafhoppers, Cicadella viridi linne; experiment: Field test, leafhoppers; format: in vivo; conditions: Leafhopper
Procedure: as §3, §4
A 10-fold dilution of linalool was also the most efficacious application, compared to 5- and 20-fold dilutions, in controlling leafhoppers, Cicadella viridi linne (Hemiptera: Cicadellidae). At 7 and 14 days after treatment, the control efficacy of the 10-fold dilution of linalool reached 96% and 98%, respectively.

adult T. palmi = conditions: cited from earlier work
Aedes aegypti (mosquito) = experiment: Median knockdown concentration (KC50) test, mosquito; format: in vivo
Source text: as §1
(§5) Knockdown Activity of Monoterpenes.

[8] = tested on: Musca domestica (housefly); experiment: Median knockdown concentration (KC50) test, housefly; format: in vivo
Source text: as §1, §5

ClC(Cl)Cl [Chloroform]
LT50 (fiducial limits) against A. japonicus [1]: >48^a hour | LT50 (fiducial limits) [2]: >48^a ^ hour | mortality ([3]; in vivo): No mortality | LT50 (fiducial limits) [4]: >48^a ^ hour | LT50 (fiducial limits) [5]: >48^a ^ hour | LT50 (fiducial limits) (M. domestica (housefly)): >48^a ^ hour

C=CC(=C)CCC=C(C)C [Myrcene]
Vp (Pa)/T (° C.) [6]: 278.64/25 Pa | activity against flower Thrips in preliminary screening [3]: not active

CCOC=O [ethyl formate, reference compound]
LC50 ([3]; flower Thrips, positive fumigant control): greater than 9.2 μg/cm^3

C=C(C)[C@H]1CC=C(C)CC1 [(+)-Limonene]
Vp (Pa)/T (° C.) [6]: 263.97/25 Pa | activity against flower Thrips in preliminary screening [3]: not active

Spinetoram
Control Efficacy (flower Thrips; 1 DAT): 70% | Control Efficacy (flower Thrips; 3 DAT): 94% | Control Efficacy (flower Thrips; 5 DAT): 37% | Control Efficacy (flower Thrips; 7 DAT): 33% | Control Efficacy (flower Thrips; 14 DAT): 62% | Control Efficacy (flower Thrips; 21 DAT): 0% | Control Efficacy ([7]; 1 DAT): 68% | Control Efficacy ([7]; 3 DAT): 87% | Control Efficacy ([7]; 5 DAT): 36% | Control Efficacy ([7]; 7 DAT): 49% | Control Efficacy ([7]; 14 DAT): 66% | Control Efficacy ([7]; 21 DAT): 25%

CC12CCC(CC1)C(C)(C)O2 [1,8-Cineole]
Vp (Pa)/T (° C.) [6]: 253.31/25 Pa | LC50, fumigation toxicity (adult T. palmi): 16.7 µg/mL (≈ 108 µM)

C/C=C/c1ccc(OC)cc1 [trans-Anethole]
KC50 (fiducial limits) (Aedes aegypti (mosquito); 10 Minutes): >8.1 µg/mL | KC50 (fiducial limits) (Aedes aegypti (mosquito); 20 Minutes): 4.84 µg/mL | KC50 (fiducial limits) (Aedes aegypti (mosquito); 30 Minutes): 4.05 µg/mL | LT50 (fiducial limits) against A. japonicus [1]: 0.933 (0.73-1.11) hour | LT50 (fiducial limits) [2]: 2.28 h | activity against flower Thrips in preliminary screening [3]: exhibit insecticidal activity | KC50 (fiducial limits) ([8]; Musca domestica, 30 Minutes): >243 µg/mL | time within which the insects responded ([8]; houseflies): ≤ 30 min | LT50 (fiducial limits) [4]: 1.07 h | LT50 (fiducial limits) [5]: 7.97 h | LT50 (fiducial limits) (M. domestica (housefly)): 2.01 h
